# Test results reported in US7144893B2, “4-aryl quinols and analogs thereof as therapeutic agents” (Cancer Research Technology Limited, priority 2001, dated 2006).
# Legend:
# [1] = system: 60 human cancer cell lines; test: cells; format: cell-based
# Method: (§1) Compounds were tested for in vitro activity (48 h drug exposure) across 60 human cancer cell lines through the National Cancer Institute (NCI) Developmental Therapies Screening Program (Boyd et al., 1995).
# [2] = system: renal sub-panel; test: cells; format: cell-based; conditions: Homo sapiens, 60 cell, read-out: mean LC50 in renal sub-panel
# Method: as §1
# [3] = system: A549 lung adenocarcinoma; test: Growth inhibitory assay (MTT, 72 hr); format: cell-based; conditions: Homo sapiens, 72 hr exposure
# Method: (§2) Compounds were prepared as 10 mM top stocks, dissolved in DMSO, and stored at 4° C., protected from light, for a maximum period of 4 weeks. Human derived cell lines (HCT 116, HT29 colon carcinoma; MCF-7 (ER+), MDA 468 (ER−) breast carcinoma; A549 lung adenocarcinoma) were routinely cultivated at 37° C. in an atmosphere of 5% CO2 in RPMI 1640 medium supplemented with 2 mM L-glutamine and 10% fetal calf serum and subcultured twice weekly to maintain continuous logarithmic growth. Cells were seeded into 96-well microtiter plates at a density of 5×10^3 per well and allowed 24 hr to adhere before drugs were introduced (final concentration 0.1 nM–100 μM, n=8). Serial drug dilutions were prepared in medium immediately prior to each assay. At the time of drug addition and following 72 hr exposure, MTT was added to each well (final concentration 400 µg/mL). Incubation at 37° C. for 4 hr allowed reduction of MTT by mitochondrial dehydrogenase to an insoluble formazan product. Well contents were aspirated and formazan solubilized by addition of DMSO:glycine buffer (pH 10.5) (4:1). Absorbance was measured using an Anthos Labtec systems plate reader at 550 nm, and used as a measure of cell viability; thus cell growth or drug toxicity was determined.
# [4] = system: HCT 116 colon carcinoma; test: Growth inhibitory assay (MTT, 72 hr); format: cell-based; conditions: Homo sapiens, 72 hr exposure
# Method: as §2
# [5] = system: HT29 colon carcinoma; test: Growth inhibitory assay (MTT, 72 hr); format: cell-based; conditions: Homo sapiens, HT-29, 72 hr exposure
# Method: as §2
# [6] = system: MCF-7 (ER+) breast carcinoma; test: Growth inhibitory assay (MTT, 72 hr); format: cell-based; conditions: Homo sapiens, MCF7, 72 hr exposure
# Method: as §2
# [7] = system: MDA 468 (ER−) breast carcinoma; test: Growth inhibitory assay (MTT, 72 hr); format: cell-based; conditions: Homo sapiens, 72 hr exposure
# Method: as §2
# [8] = system: human renal tumor xenograft RXF 944LX; test: In vivo antitumor activity, renal tumor xenograft; conditions: for DT (tumor doubling time) / T/C (optimal test/control) / GD (growth delay): 15 mg/kg i.p.
# Method: Animals. Six to eight weeks old outbred nude mice of NMRI genetic background were used for all experiments. The animals were bred and raised in animal facilities in Freiburg, Germany and housed in Macrolon™ cages. The mice were kept under laminar air flow on natural day light cycles. Diet (Altromin, Lage, Germany) and water were provided ad libitum and room temperature (25+/−2° C.) as well as humidity (60+/−10%) were maintained. The experiments were conducted essentially according to the UKCCCR guidelines under a project license approved by the German Federal Government (Regierungspräsidium Freiburg). The gender of the mice was chosen according to the gender of the patients from which the tumors were originally derived.
# Tumors and Data Evaluation. For the experiments, three subcutaneously (s.c.) growing renal human tumor xenograft models from the Freiburg tumor panel were selected (RXF 944LX, RXF 393, and RXF 1220). All renal cell carcinomas were hypernephromas. For the experiments, the latter were engrafted from tumors in serial passage growing s.c. in nude mice. Fragments of approximately 25 mg were implanted s.c. in both flanks of the animals. When the tumors were clearly palpable and had reached a volume of 100–200 mm^3, animals (6–12 tumors) were randomly allocated into treatment groups. Tumor growth was followed twice weekly by serial caliper measurement. Tumor volumes were calculated using the formula length×width^2/2, where length (a) is the largest dimension and width (b) the smallest dimension perpendicular to the length (a×b^2/2) (see, e.g., Geran et al., 1972).
# Data evaluation was performed using software by plotting relative tumor volume against time. Relative tumor volumes were calculated for each single tumor by dividing the tumor volume on day X by the tumor volume on day 0 at the time of randomization. Tumor doubling time of test and control groups was defined as the period required to double the initial tumor volume (200%). Growth curves were analyzed in terms of maximal tumor inhibition (treated/control, T/C, calculated as median tumor weight of treated animals divided by median tumor weight of control animals times 100), growth delay (the difference in days to double the initial tumor volume of the test minus the control groups). Median relative tumor volumes of each treatment group were compared to those of the control group. Human tumors growing s.c. in nude mice were treated intraperitoneally (i.p.) with doses of 15 and 10 mg/kg drug either on days 1 and 2; on days 1 and 5; on days 1 and 8; or on days 1, 5 and 8.
# The drug doses and treatment schedules used, were determined as being tolerated in non-tumor bearing nude mice prior to initiation of tumor experiments.
# [9] = system: Mycobacterium tuberculosis H37Rv (ATCC 27294); test: Microplate Alamar Blue Assay (MABA), TAACF primary screening; format: cell-based; conditions: lowest concentration effecting a reduction in fluorescence of 90% relative to controls
# From the text: Compounds were submitted to the Tuberculosis Antimicrobial Acquisition and Coordinating Facility (TAACF) for testing as antimycobacterial drugs.
# Compounds were subjected to in vitro evaluation for antimycobacterial activity.
# See, for example, Collins et al., 1997.
# [10] = system: MCF-7 wt and MCF-7/adr (breast cancer); test: Potency in MCF-7 wt and MCF-7/adr; format: cell-based
# [11] = system: apoptotic events; test: Induction of apoptotic events; format: cell-based; conditions: after lag phase (48 h)
# [12] = system: p53; test: p53 regulation in cancer cells; format: cell-based; conditions: MCF-7 (breast cancer) and HCT 116 (colon cancer)
# [13] = system: human renal tumor xenograft RXF 393; test: In vivo antitumor activity, renal tumor xenograft; conditions: for DT (tumor doubling time) / T/C (optimal test/control): days 1, 5; for GD (growth delay): days 1, 5, difference in days to double initial tumor volume; for BWC (maximal body weight change): days 1, 5, model induces cachexia
# [14] = system: human renal tumor xenograft RXF 1220; test: In vivo antitumor activity, renal tumor xenograft; conditions: 15 mg/kg i.p.
smiles,measurement,setting,value
"O=C1C=CC(O)(c2nc3ccccc3s2)C=C1 [Q05, 4-(Benzothiazol-2-yl)-4-hydroxy-2,5-cyclohexadien-1-one]",CC50,"[1]; Homo sapiens, 60 cell, 48 h, read-out: mean LC50",3390 nM
same,GI50,"[1]; Homo sapiens, 60 cell, Table 5",290 nM
same,GI50,"[1]; Homo sapiens, mean over NCI 60 cell panel, 48 h drug exposure",230 nM
same,mean log10GI50,[1]; NCI analysis,−6.63
same,log10LC50,"[1]; NCI analysis, certain colon and renal cells lines",< −6.0
same,mean LC50,[2],1570 nM
same,IC50,[3],2350 nM
same,IC50,[4],40 nM
same,IC50,[5],380 nM
same,IC50,[6],350 nM
same,IC50,[7],790 nM
same,DT (tumor doubling time),"[8]; days 1, 2",4.1
same,T/C (optimal test/control),"[8]; days 1, 2",27
same,GD (growth delay),"[8]; days 1, 2, difference in days to double initial tumor volume",2.9
same,DT (tumor doubling time),"[8]; days 1, 8",4.2
same,T/C (optimal test/control),"[8]; days 1, 8",43
same,GD (growth delay),"[8]; days 1, 8, difference in days to double initial tumor volume",2.3
same,toxic death in treatment group,"[8]; FIG. 2, six animals per group",1/6
same,T/C,"[8]; FIG. 2, six animals per group, 11–12 tumors per group",43%
same,T/C,"[8]; FIG. 3, three animals per group",27%
same,MIC,[9],0.78 µg/mL
same,relative potency MCF-7 wt and MCF-7/adr,[10],equi-potent
same,apoptosis induction,[11],induces apoptotic events
same,effect on p53,[12],up-regulates p53
same,DT (tumor doubling time),[13]; 10 mg/kg i.p.,3.0
same,T/C (optimal test/control),[13]; 10 mg/kg i.p.,63
same,GD (growth delay),[13]; 10 mg/kg i.p.,0.9
same,BWC (maximal body weight change),[13]; 10 mg/kg i.p.,−16
same,DT (tumor doubling time),[13]; 15 mg/kg i.p.,2.6
same,T/C (optimal test/control),[13]; 15 mg/kg i.p.,56
same,GD (growth delay),[13]; 15 mg/kg i.p.,0.5
same,BWC (maximal body weight change),[13]; 15 mg/kg i.p.,−19
same,DT (tumor doubling time),"[14]; days 1, 5, 8",5.3
same,T/C (optimal test/control),"[14]; days 1, 5, 8",66
same,GD (growth delay),"[14]; days 1, 5, 8, difference in days to double initial tumor volume",2.2
same,BWC (maximal body weight change),"[14]; days 1, 5, 8, model induces cachexia",−20
